Assay [1] deals with T1, hNav1.7 (Homo sapiens, UniProt Q15858). Nature of the assay: cell-based.
A further assay concerns the target human Nav1.7 (Homo sapiens, UniProt Q15858). The assay can be described thus: FLIPR or FLIPR TETRA sodium dye assay for sodium channel blocking activity. In kind it is cell-based.
The target in assay [2] is T1, hNav1.7. Conditions: read-out: Nav1.7 Activity (μM) EP assay Ki; affinity for the inactivated state of the channel; hNav1.7 HEK-293 cells.
For a further assay, the target named is Nav1.9 (Homo sapiens, UniProt Q9UI33). To be noted: read-out: TTX IC50; cited from earlier work.
A further assay concerns the target Nav1.1 (Homo sapiens, UniProt P35498). Conditions: read-out: TTX IC50; cited from earlier work.
The target in another assay is Nav1.3 (Homo sapiens, UniProt Q9NY46). Conditions: read-out: TTX IC50; cited from earlier work.
A further assay addresses Nav1.6 (Homo sapiens, UniProt Q9UQD0). To be noted: read-out: TTX IC50; cited from earlier work.
The target in the next assay is Nav1.2 (Homo sapiens, UniProt Q99250). Conditions: read-out: TTX IC50; cited from earlier work.
The target in the next assay is Nav1.8 (Homo sapiens, UniProt Q9Y5Y9). Conditions: read-out: TTX IC50; cited from earlier work.
[3] abbreviates: read-out: Nav1.7 Activity (μM) FLIPR assay IC50.
Where [4] appears, read: recombinant HEK293 cells expressing human Nav1.7 alpha subunit, veratridine and scorpion venom as agonists, read-out: Nav1.7 Activity (μM) FLIPR assay IC50.

Read-outs that look alike come from different tables or passages of the source.

T1 sequence (Q15858 1-1977 isoform Q15858-3): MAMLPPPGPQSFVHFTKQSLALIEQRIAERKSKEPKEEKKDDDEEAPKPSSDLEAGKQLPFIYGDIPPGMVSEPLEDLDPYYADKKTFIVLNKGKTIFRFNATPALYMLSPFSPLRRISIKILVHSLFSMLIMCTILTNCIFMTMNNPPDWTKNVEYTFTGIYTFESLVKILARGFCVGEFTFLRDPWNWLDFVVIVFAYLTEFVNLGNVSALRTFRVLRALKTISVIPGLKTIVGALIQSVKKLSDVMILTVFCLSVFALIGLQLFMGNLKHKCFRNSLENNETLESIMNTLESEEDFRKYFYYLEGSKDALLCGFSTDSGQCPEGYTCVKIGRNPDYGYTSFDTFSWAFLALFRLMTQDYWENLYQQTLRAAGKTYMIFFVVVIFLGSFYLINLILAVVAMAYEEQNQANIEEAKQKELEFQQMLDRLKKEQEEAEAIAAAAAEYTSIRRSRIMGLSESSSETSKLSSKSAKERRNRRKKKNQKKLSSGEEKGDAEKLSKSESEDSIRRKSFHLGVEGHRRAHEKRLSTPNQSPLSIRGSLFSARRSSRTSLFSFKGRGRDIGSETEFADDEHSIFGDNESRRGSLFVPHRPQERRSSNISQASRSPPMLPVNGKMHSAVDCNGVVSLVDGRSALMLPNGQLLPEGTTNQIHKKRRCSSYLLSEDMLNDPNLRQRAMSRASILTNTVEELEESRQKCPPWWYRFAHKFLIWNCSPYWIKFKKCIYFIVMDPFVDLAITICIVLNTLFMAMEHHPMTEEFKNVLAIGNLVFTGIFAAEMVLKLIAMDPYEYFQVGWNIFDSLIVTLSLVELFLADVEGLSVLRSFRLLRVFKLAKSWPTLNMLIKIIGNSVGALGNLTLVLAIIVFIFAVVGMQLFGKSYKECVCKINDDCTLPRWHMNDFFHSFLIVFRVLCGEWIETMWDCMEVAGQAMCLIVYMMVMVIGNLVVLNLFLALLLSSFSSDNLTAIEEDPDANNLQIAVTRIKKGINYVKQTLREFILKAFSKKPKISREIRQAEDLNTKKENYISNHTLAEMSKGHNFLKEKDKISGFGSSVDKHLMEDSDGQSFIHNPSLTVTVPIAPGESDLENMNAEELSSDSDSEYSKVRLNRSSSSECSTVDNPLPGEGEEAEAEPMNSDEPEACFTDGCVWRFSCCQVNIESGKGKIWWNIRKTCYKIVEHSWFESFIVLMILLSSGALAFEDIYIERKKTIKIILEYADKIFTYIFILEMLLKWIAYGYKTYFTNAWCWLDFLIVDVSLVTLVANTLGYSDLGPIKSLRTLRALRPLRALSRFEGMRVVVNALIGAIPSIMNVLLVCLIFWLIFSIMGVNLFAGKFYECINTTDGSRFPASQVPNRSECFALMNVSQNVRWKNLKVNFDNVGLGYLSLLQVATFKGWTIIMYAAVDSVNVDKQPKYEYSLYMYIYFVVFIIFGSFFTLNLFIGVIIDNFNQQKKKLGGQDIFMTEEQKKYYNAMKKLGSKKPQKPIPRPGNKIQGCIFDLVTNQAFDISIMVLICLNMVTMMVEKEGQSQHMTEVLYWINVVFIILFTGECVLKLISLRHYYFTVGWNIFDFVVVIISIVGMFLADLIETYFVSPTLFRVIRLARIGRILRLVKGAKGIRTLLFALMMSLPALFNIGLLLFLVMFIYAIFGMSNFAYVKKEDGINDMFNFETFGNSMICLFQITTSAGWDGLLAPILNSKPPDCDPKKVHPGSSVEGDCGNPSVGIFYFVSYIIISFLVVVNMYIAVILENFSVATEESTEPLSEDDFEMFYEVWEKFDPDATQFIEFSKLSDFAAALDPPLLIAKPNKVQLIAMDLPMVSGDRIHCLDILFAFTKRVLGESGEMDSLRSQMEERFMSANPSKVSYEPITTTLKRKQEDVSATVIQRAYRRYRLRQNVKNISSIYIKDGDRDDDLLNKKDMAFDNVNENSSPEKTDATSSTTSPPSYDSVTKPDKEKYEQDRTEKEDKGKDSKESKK
Sequence of human Nav1.7 (Q15858 1-1977 isoform Q15858-3): as above
Sequence of Nav1.2 (Q99250 whole entry, looked up): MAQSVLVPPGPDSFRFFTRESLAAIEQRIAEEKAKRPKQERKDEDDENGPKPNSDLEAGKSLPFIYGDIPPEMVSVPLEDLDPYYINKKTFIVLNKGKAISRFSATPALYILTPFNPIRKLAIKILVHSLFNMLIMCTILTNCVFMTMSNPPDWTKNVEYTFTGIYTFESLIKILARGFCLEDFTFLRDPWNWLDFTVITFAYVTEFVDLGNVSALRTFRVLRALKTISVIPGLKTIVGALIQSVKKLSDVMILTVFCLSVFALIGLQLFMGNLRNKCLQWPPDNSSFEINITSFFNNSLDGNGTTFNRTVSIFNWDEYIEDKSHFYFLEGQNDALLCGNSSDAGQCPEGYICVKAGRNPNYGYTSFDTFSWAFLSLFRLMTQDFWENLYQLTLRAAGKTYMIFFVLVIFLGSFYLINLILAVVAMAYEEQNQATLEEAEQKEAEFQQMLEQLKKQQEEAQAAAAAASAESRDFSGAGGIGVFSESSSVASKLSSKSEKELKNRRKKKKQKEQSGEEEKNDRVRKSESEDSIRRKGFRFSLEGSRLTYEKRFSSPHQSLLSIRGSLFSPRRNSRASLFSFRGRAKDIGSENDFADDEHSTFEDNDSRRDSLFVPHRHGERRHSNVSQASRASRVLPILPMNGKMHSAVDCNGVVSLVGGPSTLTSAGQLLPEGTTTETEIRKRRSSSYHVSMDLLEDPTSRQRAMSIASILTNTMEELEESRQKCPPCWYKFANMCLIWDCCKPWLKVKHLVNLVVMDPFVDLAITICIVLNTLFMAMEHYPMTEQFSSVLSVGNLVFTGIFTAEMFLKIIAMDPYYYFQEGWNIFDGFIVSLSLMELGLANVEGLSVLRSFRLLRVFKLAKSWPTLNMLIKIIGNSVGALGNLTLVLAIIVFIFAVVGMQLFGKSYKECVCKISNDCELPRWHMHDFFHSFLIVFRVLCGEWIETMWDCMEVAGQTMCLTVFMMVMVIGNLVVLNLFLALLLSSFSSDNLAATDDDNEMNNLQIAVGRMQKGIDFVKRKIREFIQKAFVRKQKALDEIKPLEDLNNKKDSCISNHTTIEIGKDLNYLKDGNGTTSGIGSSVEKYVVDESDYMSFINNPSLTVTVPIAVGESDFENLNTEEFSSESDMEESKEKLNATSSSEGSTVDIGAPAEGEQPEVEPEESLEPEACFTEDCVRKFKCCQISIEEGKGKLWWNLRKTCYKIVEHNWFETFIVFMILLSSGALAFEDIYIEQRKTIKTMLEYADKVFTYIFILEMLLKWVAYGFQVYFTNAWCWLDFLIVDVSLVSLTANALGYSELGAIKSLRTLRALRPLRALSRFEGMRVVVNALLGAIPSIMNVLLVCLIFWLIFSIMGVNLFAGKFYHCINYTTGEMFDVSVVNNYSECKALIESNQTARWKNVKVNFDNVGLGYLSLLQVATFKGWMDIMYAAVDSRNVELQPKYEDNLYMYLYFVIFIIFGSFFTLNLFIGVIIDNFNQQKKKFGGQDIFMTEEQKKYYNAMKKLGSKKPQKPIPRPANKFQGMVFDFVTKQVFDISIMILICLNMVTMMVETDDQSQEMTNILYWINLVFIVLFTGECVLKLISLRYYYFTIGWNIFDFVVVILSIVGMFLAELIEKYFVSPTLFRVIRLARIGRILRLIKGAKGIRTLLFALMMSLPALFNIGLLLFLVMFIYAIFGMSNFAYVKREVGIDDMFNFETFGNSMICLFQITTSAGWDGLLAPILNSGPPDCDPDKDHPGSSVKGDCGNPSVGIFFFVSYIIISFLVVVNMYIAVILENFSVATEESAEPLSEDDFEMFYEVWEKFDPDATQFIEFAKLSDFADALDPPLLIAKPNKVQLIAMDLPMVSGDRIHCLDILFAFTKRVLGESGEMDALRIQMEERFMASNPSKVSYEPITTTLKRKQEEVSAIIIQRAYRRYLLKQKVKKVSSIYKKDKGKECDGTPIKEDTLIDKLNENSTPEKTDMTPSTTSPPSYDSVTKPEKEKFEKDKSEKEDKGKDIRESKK

In turn, `NC(=O)CN1Cc2cc(-c3cccc([C@H](O)CO)n3)ccc2Oc2ccc(C(F)(F)F)cc21` [Compound 49, (S)-2-(2-(6-(1,2-dihydroxyethyl)pyridin-2-yl)-8-(trifluoromethyl)dibenzo-[b,f][1,4]oxazepin-10(11H)-yl)acetamide] displayed a Ki on hNav1.7 [1] of 1800 ± 794 nM. On to `CN1c2ccc(Cl)cc2CCc2cc(-c3cccc(C(N)=O)n3)ccc21` [Compound 39, 6-(8-chloro-5-methyl-10,11-dihydro-5H-dibenzo[b,f]azepin-2-yl)picolinamide], for which the IC50 (in general, the concentration that inhibits the measured activity by half) at human Nav1.7 (setting [3]) was 0.842 ± 0.04 µM. The same measure, in the same setting: then `CN1Cc2cc(-c3cccc([C@H](O)[C@@H](O)C(N)=O)n3)ccc2Oc2ccc(C(F)(F)F)cc21` [Compound 48, (2R,3S)-2,3-dihydroxy-3-(6-(10-methyl-8-(trifluoromethyl)-10,11-dihydrodibenzo[b,f][1,4]oxazepin-2-yl)pyridin-2-yl)propanamide], with 1.05 ± 0.069 µM.

`OC[C@@H](O)c1cccc(-c2ccc3c(c2)CNc2cc(C(F)(F)F)ccc2O3)n1` [Compound 43, (S)-1-(6-(8-(trifluoromethyl)-10,11-dihydrodibenzo[b,f][1,4]oxazepin-2-yl)pyridin-2-yl)ethane-1,2-diol]: the IC50 at human Nav1.7 (setting [3]) was 2.57 ± 0.059 µM. Regarding `CN1c2ccc(-c3cccc([C@H](O)CO)n3)cc2CCc2cc(C(F)(F)F)ccc21` [Compound 46, (S)-1-(6-(5-methyl-8-(trifluoromethyl)-10,11-dihydro-5H-dibenzo[b,f]azepin-2-yl)pyridin-2-yl)ethane-1,2-diol], the IC50 at human Nav1.7 (setting [3]) worked out at 1.08 ± 0.106 µM. Besides, the Ki at hNav1.7 [2] was 1.03 ± 0.227 µM. In the case of `CCN1c2ccc(Cl)cc2CCc2cc(-c3cccc(C(N)=O)n3)ccc21` [Compound 41, 6-(8-chloro-5-ethyl-10,11-dihydro-5H-dibenzo[b,f]azepin-2-yl)picolinamide], the half-inhibitory concentration (IC50) on human Nav1.7 was over 20 µM. As for `CN1Cc2cc(-c3cccc([C@H](O)CO)n3)ccc2Oc2ccc(C(F)(F)F)cc21` [Compound 44, (S)-1-(6-(10-methyl-8-(trifluoromethyl)-10,11-dihydrodibenzo[b,f][1,4]oxazepin-2-yl)pyridin-2-yl)ethane-1,2-diol], at human Nav1.7 (setting [4]), the IC50 came out at 0.373 ± 0.047 µM.

Turning to `NC1=N[C@H](O)[C@H]2[C@H]3O[C@]4(O)O[C@@H]([C@@H](O)[C@@]2(N1)[C@@H]4O)[C@]3(O)CO` [TTX, tetrodotoxin], the IC50 on Nav1.9 was 1000 nM; at Nav1.1, 10 nM; at Nav1.3, 15 nM; on Nav1.6 it was 6 nM; on Nav1.2 it was 10 nM; on Nav1.8, 50000 nM. Turning to `C[C@H](Nc1cc(C(N)=O)nc(-c2ccc3c(c2)CN(C)c2cc(C(F)(F)F)ccc2O3)n1)C(N)=O` [Compound 47, (S)-6-((1-amino-1-oxopropan-2-yl)amino)-2-(10-methyl-8-(trifluoromethyl)-10,11-dihydrodibenzo[b,f][1,4]oxazepin-2-yl)pyrimidine-4-carboxamide], the IC50 at human Nav1.7 (setting [4]) came out at 4.79 ± 0.628 µM. With `NC(=O)c1cccc(-c2ccc3c(c2)CCc2cc(Cl)ccc2N3)n1` [Compound 40, 6-(8-chloro-10,11-dihydro-5H-dibenzo[b,f]azepin-2-yl)picolinamide], the IC50 at human Nav1.7 (setting [3]) turned out to be 1.96 ± 0.036 µM. Besides, at hNav1.7 [2], the Ki is 0.648 ± 0.123 µM. Taken in the same sequence, the figures for `CC(=O)N1c2ccc(Cl)cc2CCc2cc(-c3cccc(C(N)=O)n3)ccc21` [Compound 42, 6-(5-acetyl-8-chloro-10,11-dihydro-5H-dibenzo[b,f]azepin-2-yl)picolinamide] were 7.62 ± 0.797 µM and 3.03 ± 1.26 µM.

With `CN1Cc2cc(C(F)(F)F)ccc2Oc2ccc(-c3cccc([C@H](O)CO)n3)cc21` [Compound 45, (S)-1-(6-(10-methyl-2-(trifluoromethyl)-10,11-dihydrodibenzo[b,f][1,4]oxazepin-8-yl)pyridin-2-yl)ethane-1,2-diol], the IC50 on human Nav1.7 (setting [3]) stood at 1.03 ± 0.067 µM.

Values taken from patent US9695144B2, “Dibenzazepine derivatives and use thereof” (Purdue Pharma L.P., priority 2013, dated 2017).
